In BindingDB's records for doi:10.7270/Q2ZC817P (The Scripps Research Institute Molecular Screening Center, 2007):
Where a name gives a salt, the structure may show the parent alone.

These molecules were tested against Sphingosine 1-phosphate receptor 1 (Homo sapiens, UniProt P21453) (assay: S1P1 agonism potentiation – cell-based, potentiator mode, 60K MLSMR set, dose response (AID 466)). Conditions: not given.
Sequence of Sphingosine 1-phosphate receptor 1 (P21453 whole entry): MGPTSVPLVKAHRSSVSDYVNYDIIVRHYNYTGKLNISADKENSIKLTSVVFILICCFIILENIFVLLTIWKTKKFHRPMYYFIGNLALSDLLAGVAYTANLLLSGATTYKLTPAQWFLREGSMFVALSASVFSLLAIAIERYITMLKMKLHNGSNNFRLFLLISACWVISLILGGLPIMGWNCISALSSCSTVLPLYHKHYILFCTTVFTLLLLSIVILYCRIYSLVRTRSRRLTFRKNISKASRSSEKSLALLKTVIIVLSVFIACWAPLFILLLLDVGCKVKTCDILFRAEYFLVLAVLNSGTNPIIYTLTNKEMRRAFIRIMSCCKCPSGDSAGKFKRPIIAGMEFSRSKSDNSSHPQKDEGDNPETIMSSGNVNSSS

Row | SMILES | EC50 [µM]
1 | CCN(CC)C(=O)CS/C(=N/C#N)Nc1ccccc1F [2-[[N-cyano-N'-(2-fluorophenyl)amidino]thio]-N,N-diethyl-acetamide] | > 95
2 | Oc1ccc(C2NCc3ccccc3-n3cccc32)cc1Cl (stereo not given) [2-chloranyl-4-(5,6-dihydro-4H-pyrrolo[1,2-a][1,4]benzodiazepin-4-yl)phenol;hydrochloride] | 2.83
3 | CCOC(=O)c1ccc2c(c1)C(=O)N(C1CCCCC1)C2=O [2-cyclohexyl-1,3-diketo-isoindoline-5-carboxylic acid ethyl ester] | > 95
4 | CCOc1nc(C)ccc1-c1noc(-c2ccncc2)n1 [2-ethoxy-6-methyl-3-[5-(4-pyridinyl)-1,2,4-oxadiazol-3-yl]pyridine] | 6.59
5 | COc1cc(C#CC#CCN2CCCCC2)ccc1O [2-methoxy-4-(5-piperidin-1-ylpenta-1,3-diynyl)phenol;hydrochloride] | 7.1
6 | COCC(=O)Nc1cccc(C(F)(F)F)c1 [2-methoxy-N-[3-(trifluoromethyl)phenyl]acetamide] | > 95
7 | Cc1ccc(-n2c(C)cc(C(=O)COC(=O)c3c(C)noc3C)c2C)cc1 [3,5-dimethyl-4-isoxazolecarboxylic acid [2-[2,5-dimethyl-1-(4-methylphenyl)-3-pyrrolyl]-2-oxoethyl] ester] | 7.98
8 | N#CCCS(=O)(=O)c1nnnn1-c1ccccc1 [3-(1-phenyltetrazol-5-yl)sulfonylpropanenitrile] | 3.55
9 | O=c1c(-c2ccc3c(c2)OCCO3)c(C(F)(F)F)oc2cc(O)cc(O)c12 [3-(2,3-dihydro-1,4-benzodioxin-6-yl)-5,7-bis(oxidanyl)-2-(trifluoromethyl)chromen-4-one] | 3.83
10 | CCOC(=O)c1oc2cc(O)c(CC)cc2c(=O)c1-c1ccc2c(c1)OCCO2 [3-(2,3-dihydro-1,4-benzodioxin-6-yl)-6-ethyl-7-hydroxy-4-keto-chromene-2-carboxylic acid ethyl ester] | > 10
11 | CCOc1ccc(-c2noc(-c3ccncc3)n2)cc1OCC [3-(3,4-diethoxyphenyl)-5-(4-pyridyl)-1,2,4-oxadiazole] | 0.428
12 | Cc1oc2cc(O)cc(O)c2c(=O)c1-c1ccc2c(c1)OCCCO2 [3-(3,4-dihydro-2H-1,5-benzodioxepin-7-yl)-2-methyl-5,7-bis(oxidanyl)chromen-4-one] | 3.73
13 | COc1ccc(-c2noc(-c3cc(C)cc(C)c3)n2)cc1OC [3-(3,4-dimethoxyphenyl)-5-(3,5-dimethylphenyl)-1,2,4-oxadiazole] | 1.01
14 | CC(C)Oc1cc(O)c2c(=O)c(-c3ccc(O)cc3)coc2c1 [3-(4-hydroxyphenyl)-5-oxidanyl-7-propan-2-yloxy-chromen-4-one] | 2.78
15 | COc1ccc(-c2nc(-c3ccc(Br)o3)no2)cc1OC [3-(5-bromanylfuran-2-yl)-5-(3,4-dimethoxyphenyl)-1,2,4-oxadiazole] | 5.87
16 | Cc1cc(C(=O)CC#N)c(C)n1-c1ccc(OC(F)F)cc1 [3-[1-[4-(difluoromethoxy)phenyl]-2,5-dimethyl-3-pyrrolyl]-3-oxopropanenitrile] | > 30
17 | CCOc1ccc(C(=O)Nc2ccc(Cl)cn2)cc1Cl [3-chloranyl-N-(5-chloranylpyridin-2-yl)-4-ethoxy-benzamide] | 4.76
18 | Cc1ccc(O)c(NC(=O)CCC2CCCCC2)c1 [3-cyclohexyl-N-(2-hydroxy-5-methyl-phenyl)propionamide] | > 95
19 | Cc1ccsc1C(=O)OCC(=O)c1cc(C)n(CC2CCCO2)c1C (stereo not given) [3-methyl-2-thiophenecarboxylic acid [2-[2,5-dimethyl-1-(2-oxolanylmethyl)-3-pyrrolyl]-2-oxoethyl] ester] | 8.31
20 | Cn1c(=O)oc2cc(S(=O)(=O)N3CCCC(C(=O)N4CC=C(c5ccccc5)CC4)C3)ccc21 (stereo not given) [3-methyl-6-[3-(4-phenyl-3,6-dihydro-2H-pyridine-1-carbonyl)piperidin-1-yl]sulfonyl-1,3-benzoxazol-2-one] | 9.49

Further lines, results first:

Row | EC50 [µM] | SMILES
21 | 1.22 | COCCn1c(C)cc(C(=O)CSc2nnc(-c3cccnc3)n2-c2ccccc2F)c1C [2-[[4-(2-fluorophenyl)-5-(3-pyridinyl)-1,2,4-triazol-3-yl]thio]-1-[1-(2-methoxyethyl)-2,5-dimethyl-3-pyrrolyl]ethanone]
22 | > 95 | Cc1ccccc1-n1c(SCC(=O)c2cc(C)n(C)c2C)nnc1-c1ccncc1 [2-[[4-(2-methylphenyl)-5-pyridin-4-yl-1,2,4-triazol-3-yl]sulfanyl]-1-(1,2,5-trimethylpyrrol-3-yl)ethanone]
23 | > 95 | O=C(CSc1nnc(Cc2csc(Nc3cccc(Cl)c3)n2)o1)N1CCc2ccccc21 [2-[[5-[[2-(3-chloroanilino)-1,3-thiazol-4-yl]methyl]-1,3,4-oxadiazol-2-yl]sulfanyl]-1-(2,3-dihydroindol-1-yl)ethanone]
24 | 5.99 | Cc1ccc(-c2nc(CSCC(=O)N3CCN(c4ccccn4)CC3)c(C)o2)cc1 [2-[[5-methyl-2-(4-methylphenyl)-1,3-oxazol-4-yl]methylsulfanyl]-1-(4-pyridin-2-ylpiperazin-1-yl)ethanone]
25 | 9.34 | Clc1ccc(OCc2nnc(SCc3nc4ccccc4[nH]3)n2Cc2ccco2)cc1 [2-[[[5-[(4-chlorophenoxy)methyl]-4-(2-furanylmethyl)-1,2,4-triazol-3-yl]thio]methyl]-1H-benzimidazole]
26 | > 30 | COc1ccc(-c2cn3c(C)c(C(=O)N4CCCc5ccccc54)sc3n2)cc1 [3,4-dihydro-2H-quinolin-1-yl-[6-(4-methoxyphenyl)-3-methyl-2-imidazo[2,1-b]thiazolyl]methanone]
27 | 6.75 | Cc1cc(-c2nnc(-c3ccccc3)c(-c3ccccc3)n2)c(C)o1 [3-(2,5-dimethyl-3-furanyl)-5,6-diphenyl-1,2,4-triazine]
28 | 0.77 | CCOc1ccc(-c2noc(-c3cccnc3)n2)cc1OC [3-(4-ethoxy-3-methoxy-phenyl)-5-(3-pyridyl)-1,2,4-oxadiazole]
29 | 12 | CN(C)CC(C(=O)c1ccccc1)c1ccccc1 (stereo not given) [3-(dimethylamino)-1,2-diphenyl-1-propanone;hydrochloride]
30 | 1.52 | CCOc1ccc(-c2nc(-c3ccccc3C)no2)cc1 [3-(o-tolyl)-5-p-phenetyl-1,2,4-oxadiazole]
31 | 3.37 | CN(C)c1ccnc2sc3c(=O)n(Cc4ccccc4)cnc3c12 [3-Benzyl-9-dimethylamino-3H-pyrido[3',2':4,5]thieno[3,2-d]pyrimidin-4-one]
32 | 5.53 | Cc1cc(NC(=O)c2oc3ccccc3c2C)ccc1-n1cnnn1 [3-Methyl-benzofuran-2-carboxylic acid (3-methyl-4-tetrazol-1-yl-phenyl)-amide]
33 | 4.77 | O=C(CCc1nc(-c2ccccc2F)no1)Nc1ccc(Oc2ccccc2)cc1 [3-[3-(2-fluorophenyl)-1,2,4-oxadiazol-5-yl]-N-(4-phenoxyphenyl)propanamide]
34 | > 10 | CCn1c(NC(=O)c2cccc(Cn3cc(Cl)cn3)c2)nc2ccccc21 [3-[(4-chloranylpyrazol-1-yl)methyl]-N-(1-ethylbenzimidazol-2-yl)benzamide]
35 | 3.67 | CCOc1ccc(C(=O)Nc2c(C(N)=O)oc3ccccc23)cc1 [3-[(4-ethoxybenzoyl)amino]-1-benzofuran-2-carboxamide]
36 | 5.31 | Cc1nnc2ccc(Oc3ccc(-c4ccccc4)cc3)nn12 [3-methyl-6-(4-phenylphenoxy)-[1,2,4]triazolo[4,3-b]pyridazine]
37 | > 10 | Oc1ccc(-c2nnc(-c3ccc(O)cc3)nn2)cc1 [4,4'-(1,2,4,5-tetrazine-3,6-diyl)diphenol]

Same assay, conditions: inactive by the depositor's call

Row | SMILES | EC50 [µM]
38 | Nn1c(Nc2ccccc2)nc2sc3c(c2c1=O)CCC3 [2-amino-3-anilino-7,8-dihydro-6H-cyclopenta[2,3]thieno[2,4-b]pyrimidin-1-one] | 21.7
39 | Cc1ccc(-c2nc(COC(=O)c3c(C)noc3C)cs2)cc1 [3,5-dimethyl-4-isoxazolecarboxylic acid [2-(4-methylphenyl)-4-thiazolyl]methyl ester] | 27.9
40 | CCSc1nc(N2CCOCC2)c2c(c1C#N)CCCC2 [3-(ethylthio)-1-(4-morpholinyl)-5,6,7,8-tetrahydroisoquinoline-4-carbonitrile] | 30.9
41 | Nc1c(C(=O)NC2CCCC2)sc2nc(-c3cccs3)ccc12 [3-Amino-6-thiophen-2-yl-thieno[2,3-b]pyridine-2-carboxylic acid cyclopentylamide] | 13.6
42 | CC/N=c1\sc(C(=O)NCCc2ccccc2)cc(=O)n1CC [3-Ethyl-2-[(Z)-ethylimino]-4-oxo-3,4-dihydro-2H-[1,3]thiazine-6-carboxylic acid phenethyl-amide] | 23.1
43 | CCN(CC)S(=O)(=O)c1cccc(S(=O)(=O)c2cccc(S(=O)(=O)N(CC)CC)c2)c1 [3-[3-(diethylsulfamoyl)phenyl]sulfonyl-N,N-diethyl-benzenesulfonamide] | 23.4
44 | C=CCn1c(SCC(=O)c2cccs2)nc2sc(CC)cc2c1=O [3-allyl-6-ethyl-2-[[2-keto-2-(2-thienyl)ethyl]thio]thieno[2,3-d]pyrimidin-4-one] | 38.8

Next, values leading:

Row | EC50 [µM] | SMILES
45 | 13.8 | O=C(CSc1nnc(-c2ccc(Cl)cc2)n1Cc1ccco1)c1cccs1 [2-[[5-(4-chlorophenyl)-4-(2-furanylmethyl)-1,2,4-triazol-3-yl]thio]-1-thiophen-2-ylethanone]
46 | 17.6 | Cc1nc2sc(-c3ccccc3)cc2c(=O)n1-n1cccc1 [2-methyl-6-phenyl-3-(1-pyrrolyl)-4-thieno[2,3-d]pyrimidinone]
47 | 20 | Cc1onc(-c2ccccc2Cl)c1C(=O)Oc1cc(N)n(S(=O)(=O)c2ccc(F)cc2)n1 [3-(2-chlorophenyl)-5-methyl-4-isoxazolecarboxylic acid [5-amino-1-(4-fluorophenyl)sulfonyl-3-pyrazolyl] ester]
48 | 18.2 | CCOc1cc(-c2noc(-c3cccnc3)n2)ccc1OC [3-(3-ethoxy-4-methoxy-phenyl)-5-(3-pyridyl)-1,2,4-oxadiazole]
49 | 10.1 | COc1ccccc1-c1nc(-c2ccc(Br)cc2)no1 [3-(4-bromophenyl)-5-(2-methoxyphenyl)-1,2,4-oxadiazole]
50 | 13.4 | COc1ccc(Cc2nc(-c3ccc(-n4cccc4)cc3)no2)cc1OC [3-(4-pyrrol-1-ylphenyl)-5-veratryl-1,2,4-oxadiazole]
